{"source": "patent US11311520B2", "about": "“Substituted dihydroimidazopyridinediones as MKNK1 and MKNK2 inhibitors” (Bayer Pharma Aktiengesellschaft, priority 2017, dated 2022)", "target": "human full-length MKNK1 (Homo sapiens (Human), UniProt Q9BUB5, T344D)", "sequence (Q9BUB5 other isoform, or with tags, fused parts or gaps T344D)": "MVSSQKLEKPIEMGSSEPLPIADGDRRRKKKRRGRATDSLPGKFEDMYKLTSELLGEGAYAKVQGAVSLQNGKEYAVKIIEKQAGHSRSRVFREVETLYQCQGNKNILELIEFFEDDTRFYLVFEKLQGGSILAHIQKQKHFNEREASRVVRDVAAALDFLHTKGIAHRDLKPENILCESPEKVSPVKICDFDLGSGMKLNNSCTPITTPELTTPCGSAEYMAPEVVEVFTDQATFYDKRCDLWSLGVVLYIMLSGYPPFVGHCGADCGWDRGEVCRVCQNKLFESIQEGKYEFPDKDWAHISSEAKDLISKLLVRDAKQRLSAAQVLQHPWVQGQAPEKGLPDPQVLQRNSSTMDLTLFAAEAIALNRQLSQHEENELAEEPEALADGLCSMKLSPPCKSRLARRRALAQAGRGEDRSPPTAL", "test": "MKNK1 kinase high ATP assay (TR-FRET)", "type": "biochemical", "conditions": "2 mM ATP, 15 min preincubation with enzyme, GST-MKNK1 (T344D)", "summary_of_the_method": "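GST-tagged full-length human MKNK1 (1-424, T344D, baculovirus-expressed) preincubated 15 min at 22 °C with compound, then reacted 30 min at 22 °C with 2 mM ATP and 0.06 μM biotinylated peptide (final) in HEPES pH 7.5. Phospho-substrate by TR-FRET (665/622 nm ratio), normalised to no-inhibitor and no-enzyme controls.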", "note": "Structures can show the parent of a compound that is named as a salt.", "data": [{"smiles": "Cc1cc(Nc2ncnc3ccc(Cl)cc23)c(=O)n2c1C(=O)NC21CCCCC1", "note": "[Example 46, 6′-[(6-Chloroquinazolin-4-yl)amino]-8′-methyl-2′H-spiro[cyclohexane-1,3′-imidazo[1,5-a]pyridine]-1′,5′-dione]", "values": [{"measurement": "IC50", "result": 4.1, "unit": "nM"}]}, {"smiles": "Cc1cc(Nc2ncnc3sc(C(=O)N4CCC(N(C)C)CC4)c(C)c23)c(=O)n2c1C(=O)NC21CCCCC1", "note": "[Example 20, 6′-[(6-{[4-(Dimethylamino)piperidin-1-yl]carbonyl}-5-methylthieno[2,3-d]pyrimidin-4-yl)amino]-8′-methyl-2′H-spiro[cyclohexane-1,3′-imidazo[1,5-a]pyridine]-1′,5′-dione]", "values": [{"measurement": "IC50", "result": 35.2, "unit": "nM"}]}, {"smiles": "Cc1cc(Nc2ncnc3c2CN(C(=O)OC(C)(C)C)C3)c(=O)n2c1C(=O)NC21CCC1", "note": "[Example 162, tert-Butyl 4-[(8′-methyl-1′,5′-dioxo-1′,5′-dihydro-2′H-spiro[cyclobutane-1,3′-imidazo[1,5-a]pyridin]-6′-yl)amino]-5,7-dihydro-6H-pyrrolo[3,4-d]pyrimidine-6-carboxylate]", "values": [{"measurement": "IC50", "result": 21.7, "unit": "nM"}]}, {"smiles": "COc1ccc2c(Nc3cc(C)c4n(c3=O)C3(CCCCC3)NC4=O)ncnc2c1", "note": "[Example 116, 6′-[(7-Methoxyquinazolin-4-yl)amino]-8′-methyl-2′H-spiro[cyclohexane-1,3′-imidazo[1,5-a]pyridine]-1′,5′-dione]", "values": [{"measurement": "IC50", "result": 4, "unit": "nM"}]}, {"smiles": "Cc1cc(Nc2ncnc3sc(C(=O)N(C)CCN(C)C)c(C)c23)c(=O)n2c1C(=O)NC21CCCCC1", "note": "[Example 17, N-[2-(dimethylamino)ethyl]-N,5-dimethyl-4-[(8′-methyl-1′,5′-dioxo-1′,5′-dihydro-2′H-spiro[cyclohexane-1,3′-imidazo[1,5-a]pyridin]-6′-yl)amino]thieno[2,3-d]pyrimidine-6-carboxamide]", "values": [{"measurement": "IC50", "result": 40.3, "unit": "nM"}]}, {"smiles": "Cc1cc(Nc2ncnc3sc(C(=O)N4C[C@H]5C[C@@H]4CO5)cc23)c(=O)n2c1C(=O)NC21CCCC1", "note": "[Example 96, 8′-Methyl-6′-({6-[(1R,4R)-2-oxa-5-azabicyclo[2.2.1]hept-5-ylcarbonyl]thieno[2,3-d]pyrimidin-4-yl}amino)-2′H-spiro[cyclopentane-1,3′-imidazo[1,5-a]pyridine]-1′,5′-dione]", "values": [{"measurement": "IC50", "result": 3.9, "unit": "nM"}]}, {"smiles": "Cc1cc(Nc2ncnc3ccc(C(F)(F)F)cc23)c(=O)n2c1C(=O)NC21CCCCC1", "note": "[Example 124, 8′-Methyl-6′-{[6-(trifluoromethyl)quinazolin-4-yl]amino}-2′H-spiro[cyclohexane-1,3′-imidazo[1,5-a]pyridine]-1′,5′-dione]", "values": [{"measurement": "IC50", "result": 49.9, "unit": "nM"}]}, {"smiles": "Cc1cc(Nc2ncnc3cc(Cl)ccc23)c(=O)n2c1C(=O)NC21CCCCC1", "note": "[Example 108, 6′-[(7-Chloroquinazolin-4-yl)amino]-8′-methyl-2′H-spiro[cyclohexane-1,3′-imidazo[1,5-a]pyridine]-1′,5′-dione]", "values": [{"measurement": "IC50", "result": 16.5, "unit": "nM"}]}, {"smiles": "Cc1cc(Nc2ncnc3sc(C(=O)O)cc23)c(=O)n2c1C(=O)NC21CCCCC1", "note": "[Example 9, 4-[(8′-Methyl-1′,5′-dioxo-1′,5′-dihydro-2′H-spiro[cyclohexane-1,3′-imidazo[1,5-a]pyridin]-6′-yl)amino]thieno[2,3-d]pyrimidine-6-carboxylic acid]", "values": [{"measurement": "IC50", "result": 82.6, "unit": "nM"}]}, {"smiles": "Cc1cc(Nc2ncnc3ccccc23)c(=O)n2c1C(=O)NC21CCC1", "note": "[Example 172, 8′-methyl-6′-[(quinazolin-4-yl)amino]-2′H-spiro[cyclobutane-1,3′-imidazo[1,5-a]pyridine]-1′,5′-dione]", "values": [{"measurement": "IC50", "result": 12.1, "unit": "nM"}]}, {"smiles": "Cc1cc(Nc2ncnc(NC(=O)C3CC3)n2)c(=O)n2c1C(=O)NC21CCC1", "note": "[Example 146, N-{4-[(8′-Methyl-1′,5′-dioxo-1′,5′-dihydro-2′H-spiro[cyclobutane-1,3′-imidazo[1,5-a]pyridin]-6′-yl)amino]-1,3,5-triazin-2-yl}cyclopropanecarboxamide]", "values": [{"measurement": "IC50", "result": 8.2, "unit": "nM"}]}, {"smiles": "Cc1cc(Nc2ncnc3c2CN(S(=O)(=O)c2ccccn2)C3)c(=O)n2c1C(=O)NC21CCCCC1", "note": "[Example 79, 8′-Methyl-6′-{[6-(pyridin-2-ylsulfonyl)-6,7-dihydro-5H-pyrrolo[3,4-d]pyrimidin-4-yl]amino}-2′H-spiro[cyclohexane-1,3′-imidazo[1,5-a]pyridine]-1′,5′-dione]", "values": [{"measurement": "IC50", "result": 122, "unit": "nM"}]}, {"smiles": "Cc1cc(Nc2ncnc3sc(C(=O)N4CC[C@@H](N(C)C)C4)cc23)c(=O)n2c1C(=O)NC2(C)C", "note": "[Example 142, 6-[(6-{[(3R)-3-(Dimethylamino)pyrrolidin-1-yl]carbonyl}thieno[2,3-d]pyrimidin-4-yl)amino]-3,3,8-trimethyl-2,3-dihydroimidazo[1,5-a]pyridine-1,5-dione]", "values": [{"measurement": "IC50", "result": 20, "unit": "nM"}]}, {"smiles": "CCOC(=O)N1Cc2ncnc(Nc3cc(C)c4n(c3=O)C3(CCCCC3)NC4=O)c2C1", "note": "[Example 76, Ethyl 4-[(8′-methyl-1′,5′-dioxo-1′,5′-dihydro-2′H-spiro[cyclohexane-1,3′-imidazo[1,5-a]pyridin]-6′-yl)amino]-5,7-dihydro-6H-pyrrolo[3,4-d]pyrimidine-6-carboxylate]", "values": [{"measurement": "IC50", "result": 17.7, "unit": "nM"}]}, {"smiles": "Cc1cc(Nc2ncnc3sccc23)c(=O)n2c1C(=O)NC21CCCCC1", "note": "[Example 31, 8′-Methyl-6′-(thieno[2,3-d]pyrimidin-4-ylamino)-2′H-spiro[cyclohexane-1,3′-imidazo[1,5-a]pyridine]-1′,5′-dione hydrochloride]", "values": [{"measurement": "IC50", "setting": "hydrochloride", "result": 16.8, "unit": "nM"}]}, {"smiles": "Cc1cc(Nc2ncnc3c(F)c(F)ccc23)c(=O)n2c1C(=O)NC21CCCCC1", "note": "[Example 115, 6′-[(7,8-Difluoroquinazolin-4-yl)amino]-8′-methyl-2′H-spiro[cyclohexane-1,3′-imidazo[1,5-a]pyridine]-1′,5′-dione]", "values": [{"measurement": "IC50", "result": 208, "unit": "nM"}]}, {"smiles": "Cc1cc(Nc2ncnc3[nH]cnc23)c(=O)n2c1C(=O)NC21CCC1", "note": "[Example 159, 8′-Methyl-6′-(9H-purin-6-ylamino)-2′H-spiro[cyclobutane-1,3′-imidazo[1,5-a]pyridine]-1′,5′-dione]", "values": [{"measurement": "IC50", "result": 2.1, "unit": "nM"}]}, {"smiles": "Cc1cc(Nc2ncnc3oc(C)c(C)c23)c(=O)n2c1C(=O)NC21CCCCC1", "note": "[Example 38, 6′-[(5,6-Dimethylfuro[2,3-d]pyrimidin-4-yl)amino]-8′-methyl-2′H-spiro[cyclohexane-1,3′-imidazo[1,5-a]pyridine]-1′,5′-dione]", "values": [{"measurement": "IC50", "result": 79.9, "unit": "nM"}]}, {"smiles": "Cc1cc(Nc2ccnc(N)n2)c(=O)n2c1C(=O)NC21CCCCC1", "note": "[Example 21, 6′-[(2-Aminopyrimidin-4-yl)amino]-8′-methyl-2′H-spiro[cyclohexane-1,3′-imidazo[1,5-a]pyridine]-1′,5′-dione]", "values": [{"measurement": "IC50", "result": 339, "unit": "nM"}]}, {"smiles": "Cc1cc(Nc2ncnc3cccc(C)c23)c(=O)n2c1C(=O)NC21CCCCC1", "note": "[Example 123, 8′-Methyl-6′-[(5-methylquinazolin-4-yl)amino]-2′H-spiro[cyclohexane-1,3′-imidazo[1,5-a]pyridine]-1′,5′-dione]", "values": [{"measurement": "IC50", "result": 9.7, "unit": "nM"}]}, {"smiles": "Cc1cc(Nc2ncnc3ccc(Cl)cc23)c(=O)n2c1C(=O)NC2(C)C", "note": "[Example 166, 6-[(6-Chloroquinazolin-4-yl)amino]-3,3,8-trimethyl-2,3-dihydroimidazo[1,5-a]pyridine-1,5-dione]", "values": [{"measurement": "IC50", "result": 45.9, "unit": "nM"}]}, {"smiles": "Cc1cc(Nc2ncnc3sc(C(=O)N4CC[C@H](N(C)C)C4)cc23)c(=O)n2c1C(=O)NC21CCCCC1", "note": "[Example 30, 6′-[(6-{[(3S)-3-(Dimethylamino)pyrrolidin-1-yl]carbonyl}thieno[2,3-d]pyrimidin-4-yl)amino]-8′-methyl-2′H-spiro[cyclohexane-1,3′-imidazo[1,5-a]pyridine]-1′,5′-dione]", "values": [{"measurement": "IC50", "result": 3.2, "unit": "nM"}]}, {"smiles": "Cc1cc(Nc2ncnc3cccc(C)c23)c(=O)n2c1C(=O)NC21CS(=O)(=O)C1", "note": "[Example 179, 8-methyl-6-[(5-methylquinazolin-4-yl)amino]-2H-spiro[imidazo[1,5-a]pyridine-3,3′-thietane]-1,5-dione 1′,1′-dioxide]", "values": [{"measurement": "IC50", "result": 124, "unit": "nM"}]}, {"smiles": "Cc1cc(Nc2ncnc3c2CN(C(=O)[C@@H]2CCC(=O)N2)C3)c(=O)n2c1C(=O)NC21CCCCC1", "note": "[Example 77, 8′-Methyl-6′-[(6-{[(2S)-5-oxopyrrolidin-2-yl]carbonyl}-6,7-dihydro-5H-pyrrolo[3,4-cl]pyrimidin-4-yl)amino]-2′H-spiro[cyclohexane-1,3′-imidazo[1,5-a]pyridine]-1′,5′-dione]", "values": [{"measurement": "IC50", "result": 55.9, "unit": "nM"}]}, {"smiles": "Cc1cc(Nc2ncnc3sc(C(=O)O)cc23)c(=O)n2c1C(=O)NC21CCC1", "note": "[Example 150, 4-[(8′-Methyl-1′,5′-dioxo-1′,5′-dihydro-2′H-spiro[cyclobutane-1,3′-imidazo[1,5-a]pyridin]-6′-yl)amino]thieno[2,3-d]pyrimidine-6-carboxylic acid]", "values": [{"measurement": "IC50", "result": 18.5, "unit": "nM"}]}, {"smiles": "Cc1cc(Nc2ncnc3sc(C(=O)N4CC(NC(=O)OC(C)(C)C)C4)cc23)c(=O)n2c1C(=O)NC21CCC1", "note": "[Example 153, tert-Butyl [1-({4-[(8′-methyl-1′,5′-dioxo-1′,5′-dihydro-2′H-spiro[cyclobutane-1,3′-imidazo[1,5-a]pyridin]-6′-yl)amino]thieno[2,3-d]pyrimidin-6-yl}carbonyl)azetidin-3-yl]carbamate]", "values": [{"measurement": "IC50", "result": 5.3, "unit": "nM"}]}, {"smiles": "COc1cc2ncnc(Nc3cc(C)c4n(c3=O)C3(CCCCC3)NC4=O)c2cc1OC", "note": "[Example 119, 6′-[(6,7-Dimethoxyquinazolin-4-yl)amino]-8′-methyl-2′H-spiro[cyclohexane-1,3′-imidazo[1,5-a]pyridine]-1′,5′-dione]", "values": [{"measurement": "IC50", "result": 3, "unit": "nM"}]}, {"smiles": "Cc1cc(Nc2ncnc3cccc(C)c23)c(=O)n2c1C(=O)N[C@]21CC[C@@](O)(C(F)(F)F)CC1", "note": "[Example 188, (cis)-4-hydroxy-8′-methyl-6′-[(5-methylquinazolin-4-yl)amino]-4-(trifluoromethyl)-2′H-spiro[cyclohexane-1,3′-imidazo[1,5-a]pyridine]-1′,5′-dione]", "values": [{"measurement": "IC50", "result": 47, "unit": "nM"}]}, {"smiles": "Cc1cc(Nc2ncnc(N)n2)c(=O)n2c1C(=O)NC2(C)C", "note": "[Example 131, 6-[(4-Amino-1,3,5-triazin-2-yl)amino]-3,3,8-trimethyl-2,3-dihydroimidazo[1,5-a]pyridine-1,5-dione]", "values": [{"measurement": "IC50", "result": 32.2, "unit": "nM"}]}, {"smiles": "Cc1cc(Nc2ncnc3[nH]cnc23)c(=O)n2c1C(=O)NC21CCCCC1", "note": "[Example 24, 8′-methyl-6′-(9H-purin-6-ylamino)-2′H-spiro[cyclohexane-1,3′-imidazo[1,5-a]pyridine]-1′,5′-dione]", "values": [{"measurement": "IC50", "result": 1.5, "unit": "nM"}]}]}
